Assay results reported in PubChem BioAssay AID489040 (Sanford-Burnham Center for Chemical Genomics, 2010).
Active and inactive are the calls of the source.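 The calls were made as follows: active = mean half-maximal activating concentration from the dose-response fit at or below a set limit; inactive = the rest.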

Molecular target: CHO-XBP1 luciferase reporter, IRE1-XBP1 UPR activation
Test: XBP1 luciferase reporter activation – CHO-XBP1 cells, luminescence, counter-screen for apoptotic UPR arm activators, dose response (AID 489040);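 also: reporter read after six hours of compound exposure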

| SMILES | EC50 |
| --- | --- |
| Cc1ccc(NC(=O)c2ccc(N/N=C/c3cccc(O)c3)c([N+](=O)[O-])c2)cc1 | > 80 µM (inactive) |
| Oc1ccc(/C=N/Nc2ccnc3cc(Cl)ccc23)cc1O | 8.71 µM |
| CCc1nc(N=Nc2c(O)[nH]c3ccccc23)c2c3c(sc2n1)CCC3 | inactive |
| O=S(=O)(Nc1cccc2cccnc12)c1ccc(S(=O)(=O)N2CCCC2)cc1 | > 80 µM (inactive) |
| COc1ccc(/C=N/Nc2cc(C)nc(-n3nc(C)cc3C)n2)c(OC)c1 | > 80 µM (inactive) |
| O=C(N/N=C(\c1ccccc1)c1cccnc1)c1cccc(F)c1 | > 80 µM (inactive) |
| CSc1nnc(NC(=O)c2nc(S(=O)(=O)Cc3ccccc3)ncc2Cl)s1 | > 80 µM (inactive) |
| CCOC(=O)C(=Cc1ccc(F)cc1)C(=O)OCC | > 80 µM (inactive) |
| O=C(N/N=C/c1cccc2cccnc12)c1ccccc1O | > 80 µM (inactive) |
| COc1ccc(OC)c(/C=C/C(=O)N2C(=O)c3cccc(N)c3C2=O)c1 | > 80 µM (inactive) |
| Cc1ccc(-c2nc(NC(=O)c3nn(C)cc3[N+](=O)[O-])sc2C)cc1 | > 80 µM (inactive) |
| COc1ccc(/C=C/c2ccc3cccc(O)c3n2)c(OC)c1OC | > 80 µM (inactive) |
| FC(F)(F)c1nnc2c(Sc3ccccc3)nc3ccc(Cl)cc3n12 | 9.74 µM |
| O=C(/C=C/c1ccco1)NC(=S)Nc1ccc(O)c(-c2nc3ccccc3s2)c1 | 9.84 µM |
| Cc1ccc(C(C)C)c(OCc2ccc(C(=O)N/N=C/c3ccc(O)c(O)c3)cc2)c1 | 4.41 µM |
| Cc1ccc(NC(=O)Cn2ncc(Cl)c(Cl)c2=O)cc1S(=O)(=O)N1CCCCC1 | > 80 µM (inactive) |
| O=C1CC(c2cccc(Cl)c2)CC(O)=C1C=Nc1ccccc1 (configuration not stated) | > 80 µM (inactive) |
| COc1ccc(C(C[N+](=O)[O-])n2nc(C)cc2C)cc1 (configuration not stated) | > 80 µM (inactive) |
| COc1cccc2sc(Nc3nc(C)c(C(C)=O)s3)nc12 | > 80 µM (inactive) |
| COc1ccc(N2C(=O)/C(=C/c3cccs3)C(=O)NC2=S)cc1 | > 80 µM (inactive) |
| CC(C)c1ccc(NC(=O)/C(C#N)=C/c2ccncc2)cc1 | > 80 µM (inactive) |
| C/C(=N\Nc1ncnc2sc(C)c(C)c12)c1ccccn1 | inactive |
